What follows are molecules tested against T1, human TRPV4 (Homo sapiens, UniProt Q9HBA0) (assay: FLIPR assay for hTRPV4 expressed in BHK cells: inhibition of Agonist Compound-induced calcium signal). Conditions: hTRPV4 in BHK/AC9 cells, FLIPR calcium signal, agonist at EC80; reported as range class; read-out: IC50.
T1 construct: expressed in transfected cells; host or cells: BHK/AC9 cells transduced with BacMam virus
Type: cell-based
Description: FLIPR Assay for hTRPV4 Expressed in BHK Cells:
TRPV4 channel activation results in an influx of divalent and monovalent cations including calcium. The resulting changes in intracellular calcium were monitored using a calcium specific fluorescent dye Fluo-4 (MDS Analytical Technologies). BHK/AC9 cells transduced with BacMam virus expressing the human TRPV4 gene at a MOI of 78 were plated in a 384 well poly-D lysine coated plate (15,000 cells/well in 50 μL culture medium containing DMEM/F12 with 15 mM HEPES, 10% FBS, 1% Penicillin-Streptomycin and 1% L-glutamine). Cells were incubated for 24 hours at 37° C. and 5% CO2. Culture medium was then aspirated using a Tecan plate-washer and replaced with 20 μL/well of dye loading buffer: HBSS, 500 μM Brilliant Black (MDS Analytical Technologies), and 2 μM Fluo-4 AM. Dye loaded plates were then incubated in the dark at room temperature for 1-1.5 hours.

T1 sequence (Q9HBA0 whole entry): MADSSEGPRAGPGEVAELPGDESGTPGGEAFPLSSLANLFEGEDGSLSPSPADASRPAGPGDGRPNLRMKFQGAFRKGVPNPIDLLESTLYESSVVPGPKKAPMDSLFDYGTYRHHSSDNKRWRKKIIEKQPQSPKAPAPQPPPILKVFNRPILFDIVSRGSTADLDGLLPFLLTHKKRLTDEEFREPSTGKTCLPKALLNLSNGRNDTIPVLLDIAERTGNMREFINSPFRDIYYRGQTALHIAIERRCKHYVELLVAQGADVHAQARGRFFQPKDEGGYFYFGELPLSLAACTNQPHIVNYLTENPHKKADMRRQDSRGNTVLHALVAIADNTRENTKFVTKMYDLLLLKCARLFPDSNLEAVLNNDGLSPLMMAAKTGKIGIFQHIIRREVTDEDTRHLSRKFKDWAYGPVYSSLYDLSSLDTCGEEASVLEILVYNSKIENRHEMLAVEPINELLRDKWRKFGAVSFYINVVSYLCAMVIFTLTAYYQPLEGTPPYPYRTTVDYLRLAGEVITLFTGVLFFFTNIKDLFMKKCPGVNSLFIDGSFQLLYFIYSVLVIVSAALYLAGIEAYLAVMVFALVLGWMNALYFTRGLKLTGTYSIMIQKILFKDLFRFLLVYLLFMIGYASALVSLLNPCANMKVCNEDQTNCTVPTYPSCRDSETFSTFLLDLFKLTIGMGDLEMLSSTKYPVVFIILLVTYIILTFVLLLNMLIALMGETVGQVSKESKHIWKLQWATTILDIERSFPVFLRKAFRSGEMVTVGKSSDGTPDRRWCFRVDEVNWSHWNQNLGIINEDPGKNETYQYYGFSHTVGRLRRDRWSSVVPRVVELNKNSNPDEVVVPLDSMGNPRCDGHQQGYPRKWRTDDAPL

| SMILES | IC50 [nM] |
| --- | --- |
| CCCCOc1cc(C#N)ccc1O[C@H]1CN(S(=O)(=O)c2ccc(C(F)(F)F)cc2C#N)C[C@@]1(O)CO [Example 169, 2-(((3R,4S)-4-(2-butoxy-4-cyanophenoxy)-3-hydroxy-3-(hydroxymethyl)pyrrolidin-1-yl)sulfonyl)-5-(trifluoromethyl)benzonitrile] | 0.1 to 10 |
| N#Cc1ccc(O[C@H]2CN(S(=O)(=O)c3c(Cl)cc(Cl)cc3Cl)C[C@@]2(O)CO)cc1F [Example 77, 2-fluoro-4-(((3S,4R)-4-hydroxy-4-(hydroxymethyl)-1-((2,4,6-trichlorophenyl)sulfonyl)pyrrolidin-3-yl)oxy)benzonitrile] | 10 to 100 |
| CC(C)COc1cc(C#N)c(F)cc1O[C@H]1CN(S(=O)(=O)c2ccc(C(F)(F)F)cc2C#N)C[C@@]1(O)CO [Example 165, 4-(((3S,4R)-1-((2-cyano-4-(trifluoromethyl)phenyl)sulfonyl)-4-hydroxy-4-(hydroxymethyl)pyrrolidin-3-yl)oxy)-2-fluoro-5-isobutoxybenzonitrile] | 0.1 to 10 |
| N#Cc1ccc(O[C@H]2CN(S(=O)(=O)c3ccc(-c4ccccc4)cc3C#N)C[C@@]2(O)CO)cc1F [Example 218, 4-(((3R,4S)-4-(4-cyano-3-fluorophenoxy)-3-hydroxy-3-(hydroxymethyl)pyrrolidin-1-yl)sulfonyl)-[1,1′-biphenyl]-3-carbonitrile] | 10 to 100 |
| C[C@H](N)[C@]1(O)CN(S(=O)(=O)c2ccc(Cl)cn2)C[C@@H]1Oc1ccc(C#N)c(F)c1 [Example 257, 4-(((3S,4R)-4-((S)-1-aminoethyl)-1-((5-chloropyridin-2-yl)sulfonyl)-4-hydroxypyrrolidin-3-yl)oxy)-2-fluorobenzonitrile, 2,2,2-trifluoroacetate] | 10 to 100 |
| N#Cc1cc(C(F)(F)F)ccc1S(=O)(=O)N1C[C@H](Oc2ccc(F)c(C(F)(F)F)c2)[C@](O)(CO)C1 [Example 38, 2-(((3R,4S)-4-(4-fluoro-3-(trifluoromethyl)phenoxy)-3-hydroxy-3-(hydroxymethyl)pyrrolidin-1-yl)sulfonyl)-5-(trifluoromethyl)benzonitrile] | 10 to 100 |
| N#Cc1ccc(S(=O)(=O)N2C[C@H](Oc3ccc(C#N)c(F)c3)[C@](O)(CO)C2)cc1 [Example 71, 4-(((3S,4R)-1-((4-cyanophenyl)sulfonyl)-4-hydroxy-4-(hydroxymethyl)pyrrolidin-3-yl)oxy)-2-fluorobenzonitrile] | 10 to 100 |
| N#Cc1ccc(O[C@H]2CN(S(=O)(=O)c3ccc(Cl)cn3)C[C@@]2(O)CO)cc1F [Example 58, 4-(((3S,4R)-1-((5-chloropyridin-2-yl)sulfonyl)-4-hydroxy-4-(hydroxymethyl)pyrrolidin-3-yl)oxy)-2-fluorobenzonitrile] | 10 to 100 |
| N#Cc1ccc(O[C@H]2CN(S(=O)(=O)c3ccc(Br)cc3)C[C@@]2(O)CO)cc1F [Example 102, 4-(((3S,4R)-1-((4-bromophenyl)sulfonyl)-4-hydroxy-4-(hydroxymethyl)pyrrolidin-3-yl)oxy)-2-fluorobenzonitrile] | 10 to 100 |
| CC(C)COc1cc(C#N)c(F)cc1O[C@H]1CN(S(=O)(=O)c2ccc(C#N)cc2)C[C@@]1(O)CO [Example 180, 4-(((3S,4R)-1-((4-cyanophenyl)sulfonyl)-4-hydroxy-4-(hydroxymethyl)pyrrolidin-3-yl)oxy)-2-fluoro-5-isobutoxybenzonitrile] | 0.1 to 10 |
| N#Cc1ccc(O[C@H]2CN(S(=O)(=O)c3ccc(F)cc3Br)C[C@]2(O)CO)cc1F [Example 144, 4-(((3S,4S)-1-((2-bromo-4-fluorophenyl)sulfonyl)-4-hydroxy-4-(hydroxymethyl)pyrrolidin-3-yl)oxy)-2-fluorobenzonitrile] | 10 to 100 |
| N#Cc1ccc(O[C@H]2CN(S(=O)(=O)c3c(Cl)cc(C(F)(F)F)cc3Cl)C[C@@]2(O)CO)cc1F [Example 96, 4-(((3S,4R)-1-((2,6-dichloro-4-(trifluoromethyl)phenyl)sulfonyl)-4-hydroxy-4-(hydroxymethyl)pyrrolidin-3-yl)oxy)-2-fluorobenzonitrile] | 10 to 100 |
| COc1ccc(S(=O)(=O)N2C[C@H](Oc3ccc(C#N)c(F)c3)[C@@](O)(CO)C2)c(C#N)c1 [Example 145, 4-(((3S,4S)-1-((2-cyano-4-methoxyphenyl)sulfonyl)-4-hydroxy-4-(hydroxymethyl)pyrrolidin-3-yl)oxy)-2-fluorobenzonitrile] | 10 to 100 |
| N#Cc1ccc(O[C@H]2CN(S(=O)(=O)c3ccc(Cl)cn3)C[C@@]2(O)CN)cc1 [Example 246, 4-(((3S,4S)-4-(aminomethyl)-1-((5-chloropyridin-2-yl)sulfonyl)-4-hydroxpyrrolidin-3-yl)oxy)benzonitrile] | 10 to 100 |
| N#Cc1ccc(O[C@H]2CN(S(=O)(=O)c3ccc(C(F)(F)F)cc3Cl)C[C@@]2(O)CO)cc1 [Example 49, 4-(((3S,4R)-1-((2-chloro-4-(trifluoromethyl)phenyl)sulfonyl)-4-hydroxy-4-(hydroxymethyl)pyrrolidin-3-yl)oxy)benzonitrile] | 10 to 100 |
| Cc1nn(C)c(S(=O)(=O)N2C[C@H](Oc3ccc(C#N)c(F)c3)[C@](O)(CO)C2)c1Cl [Example 124, 4-(((3S,4R)-1-((4-chloro-1,3-dimethyl-1H-pyrazol-5-yl)sulfonyl)-4-hydroxy-4-(hydroxymethyl)pyrrolidin-3-yl)oxy)-2-fluorobenzonitrile] | 100 to 1000 |
| N#Cc1ccc(O[C@H]2CN(S(=O)(=O)c3ccc(C(F)(F)F)c(F)c3)C[C@@]2(O)CO)cc1F [Example 116, 2-fluoro-4-(((3S,4R)-1-((3-fluoro-4-(trifluoromethyl)phenyl)sulfonyl)-4-hydroxy-4-(hydroxymethyl)pyrrolidin-3-yl)oxy)benzonitrile] | 10 to 100 |
| N#Cc1ccc(O[C@H]2CN(S(=O)(=O)c3cccc(OC(F)(F)F)n3)C[C@@]2(O)CO)cc1F [Example 132, 2-fluoro-4-(((3S,4R)-4-hydroxy-4-(hydroxymethyl)-1-((6-(trifluoromethoxy)pyridin-2-yl)sulfonyl)pyrrolidin-3-yl)oxy)benzonitrile] | 10 to 100 |
| N#Cc1ccc(O[C@H]2CN(S(=O)(=O)c3ccc(CC(F)(F)F)cc3)C[C@@]2(O)CO)cc1F [Example 111, 2-fluoro-4-(((3S,4R)-4-hydroxy-4-(hydroxymethyl)-1-((4-(2,2,2-trifluoroethyl)phenyl)sulfonyl)pyrrolidin-3-yl)oxy)benzonitrile] | 10 to 100 |

Results, then the molecule that gave them:

| IC50 [nM] | SMILES |
| --- | --- |
| 10 to 100 | N#Cc1ccc(S(=O)(=O)N2C[C@H](Oc3ccc(C(F)(F)F)cc3)[C@](O)(CO)C2)c(Cl)c1 [Example 150, 3-chloro-4-(((3R,4S)-3-hydroxy-3-(hydroxymethyl)-4-(4-(trifluoromethyl)phenoxy)pyrrolidin-1-yl)sulfonyl)benzonitrile] |
| 0.1 to 10 | N#Cc1ccc(O[C@H]2CN(S(=O)(=O)c3ccc(Cl)cc3C#N)C[C@@]23CNCCO3)cc1F [compound 253] |
| 0.1 to 10 | N#Cc1ccc(O[C@H]2CN(S(=O)(=O)c3ccc(C#Cc4ccccc4)cn3)C[C@@]2(O)CO)cc1F [Example 230, 2-fluoro-4-(((3S,4R)-4-hydroxy-4-(hydroxymethyl)-1-((5-(phenylethynyl)pyridin-2-yl)sulfonyl)pyrrolidin-3-yl)oxy)benzonitrile] |
| 0.1 to 10 | N#Cc1cc(C(F)(F)F)ccc1S(=O)(=O)N1C[C@H](Oc2ccc(Cl)c(F)c2)[C@](O)(CO)C1 [Example 30, 2-(((3R,4S)-4-(4-chloro-3-fluorophenoxy)-3-hydroxy-3-(hydroxymethyl)pyrrolidin-1-yl)sulfonyl)-5-(trifluoromethyl)benzonitrile] |
| 0.1 to 10 | C[C@H](O)[C@]1(O)CN(S(=O)(=O)c2ccc(C#N)cc2Cl)C[C@@H]1Oc1ccc(C#N)c(F)c1 [Example 205, 4-(((3S,4R)-1-((2-chloro-4-cyanophenyl)sulfonyl)-4-hydroxy-4-((S)-1-hydroxyethyl)pyrrolidin-3-yl)oxy)-2-fluorobenzonitrile] |
| 0.1 to 10 | N#Cc1cc(Cl)ccc1S(=O)(=O)N1C[C@H](Oc2cc(F)c(F)cc2F)[C@](O)(CO)C1 [Example 24, 5-chloro-2-(((3R,4S)-3-hydroxy-3-(hydroxymethyl)-4-(2,4,5-trifluorophenoxy)pyrrolidin-1-yl)sulfonyl)benzonitrile] |
| 0.1 to 10 | N#Cc1ccc(O[C@H]2CN(S(=O)(=O)c3ccc(OC(F)(F)F)cc3Br)C[C@@]2(O)CO)cc1F [Example 65, 4-(((3S,4R)-1-((2-bromo-4-(trifluoromethoxy)phenyl)sulfonyl)-4-hydroxy-4-(hydroxymethyl)pyrrolidin-3-yl)oxy)-2-fluorobenzonitrile] |
| 0.1 to 10 | N#Cc1cc(Cl)ccc1S(=O)(=O)N1C[C@H](Oc2ccc(C(F)(F)F)cc2)[C@@](O)(CO)C1 [Example 152, 5-chloro-2-(((3S,4S)-3-hydroxy-3-(hydroxymethyl)-4-(4-(trifluoromethyl)phenoxy)pyrrolidin-1-yl)sulfonyl)benzonitrile] |
| 0.1 to 10 | N#Cc1cc(Cl)ccc1S(=O)(=O)N1C[C@H](Oc2ccc(F)c(F)c2F)[C@](O)(CO)C1 [Example 23, 5-chloro-2-(((3R,4S)-3-hydroxy-3-(hydroxymethyl)-4-(2,3,4-trifluorophenoxy)pyrrolidin-1-yl)sulfonyl)benzonitrile] |
| 0.1 to 10 | CCCOc1cc(C#N)c(F)cc1O[C@H]1CN(S(=O)(=O)c2ccc(C(F)(F)F)cc2C#N)C[C@@]1(O)CO [Example 160, 4-(((3S,4R)-1-((2-cyano-4-(trifluoromethyl)phenyl)sulfonyl)-4-hydroxy-4-(hydroxymethyl)pyrrolidin-3-yl)oxy)-2-fluoro-5-propoxybenzonitrile] |
